Results published in patent US20260306502A1, “MITOCHONDRIAL UNCOUPLERS FOR TREATMENT OF METABOLIC DISEASES AND CANCER” (Mito Biopharma, LLC, priority 2022, published 2026).
“Also recorded” adds a separate entry of the source.

Legend:
[1] = test system: carbon tetrachloride (CCl4)-induced liver fibrosis NASH murine model; test: CCl4-induced liver fibrosis NASH murine model; type: in vivo, mouse; settings: CCl4 mice
Protocol: CCl4 is a hepatotoxin that induces acute liver injury in mice and induces oxidative damage, inflammation, and liver fibrosis in mice, independent of liver steatosis, and thus is considered as a “pure” fibrotic model.
C57Bl6 male mice at the age of 7-8 weeks were randomized into 3 groups: vehicle, CCl4 alone treatment, CCl4 plus Compound treatment, n=7. CCl4 was diluted in olive oil (1:5 v/v), and intraperitoneally injected at a dose of 750 μl/kg to the mice, twice a week for 6 weeks. Compound treatment started at the beginning of CCl4 injection. At the end of treatment, the mice were euthanized and liver tissue was collected. For histology analyses, the liver tissue was fixed and paraffin embedded; tissue sections were stained with hematoxylin and eosin (H&E), or with Picrosirius red. The fibrosis severities were scored by a board-certified pathologist based on Picrosirius red stain of the liver. For immunoblotting analyses, the liver tissue was homogenized and the proteins were separated by native page gel electrophoresis. The levels of Collagen I and GAPDH were detected by Collagen I polyclonal antibody (Abcam ab34710) and GAPDH (14C10) Rabbit mAb (Cell signaling #2118).

[2] = test system: TGF-β signaling pathway; test: TGF-β signaling pathway activation (Smad2/3 phosphorylation) in LX-2 cells, immunoblotting; type: cell-based, human; settings: 6 hrs, FIG. 17B
Protocol: Cells were then harvested, and immunoblotting analyses was performed with antibodies against p-Smad2/3 (phosphorylated Smad2/3), Smad2/3, or GAPDH, as indicated.

Compound	effect on fibrosis formation and fibrosis scores ([1]; 7.5 mg/kg/day, 6 weeks)	effect on collagen levels ([1]; immunoblotting)	effect on TGF-β signaling pathway activation (Smad2/3 phosphorylation) [2]
COCCN(CCOC)Cc1cc(Cl)cc(C(=O)Nc2nc3ccc(C(F)(F)F)cc3s2)c1O [Compound 25, 3-((bis(2-methoxyethyl)amino)methyl)-5-chloro-2-hydroxy-N-(6-(trifluoromethyl)benzo[d]thiazol-2-yl)benzamide]	reduced fibrosis formation and improved fibrosis scores; also recorded: reduces fibrosis in CCl4 treated animals	reduces collagen levels	
COCCOCc1cc(C(F)(F)F)cc2sc(NC(=O)c3cc(Cl)cc(CN4C[C@@H](C)O[C@@H](C)C4)c3O)nc12 [Compound 64, 5-chloro-3-((cis-2,6-dimethylmorpholino)methyl)-2-hydroxy-N-(4-((2-methoxyethoxy)methyl)-6-(trifluoromethyl)benzo[d]thiazol-2-yl)benzamide]			blocks activation of TGF-β signaling pathway at early stages by inhibiting Smad2/3 phosphorylation
